According to ChEMBL document CHEMBL5120779, “Thiazolidinedione-Based Structure Modification of Celastrol Provides Thiazolidinedione-Conjugated Derivatives as Potent Agents against Non-Small-Cell Lung Cancer Cells through a Mitochondria-Mediated Apoptotic Pathway” (J Nat Prod, 2022):

Legend:
[1] = Cytotoxicity against human MRC5 cells assessed as inhibition of cell growth measured after 96 hrs by MTT assay; assay type: toxicity, cell-based
[2] = Selectivity index, ratio of IC50 for human MRC5 cells to IC50 for human A549 cells; assay type: toxicity; details: MRC5 cells and A549 cells, read-out: Ratio IC50
A549 [3] = test: cells; details: Homo sapiens, A549, 96 h
Description: Cytotoxicity against human A549 cells assessed as inhibition of cell growth measured after 96 hrs by MTT assay

A549 [4] = test: Induction of apoptosis in human A549 cells assessed as necrotic cells at 0.5 uM incubated for 48 hrs by Annexin V-FITC/propidium iodide staining based flow cytometry (reference value: 3.36%); assay type: functional
A549 [5] = test: Induction of apoptosis in human A549 cells assessed as late apoptotic cells at 0.5 uM incubated for 48 hrs by Annexin V-FITC/propidium iodide staining based flow cytometry (reference value: 0.82%); assay type: functional
A549 [6] = test: Induction of apoptosis in human A549 cells assessed as early apoptotic cells at 0.5 uM incubated for 48 hrs by Annexin V-FITC/propidium iodide staining based flow cytometry (reference value: 0.11%); assay type: functional
A549 [7] = test: Cytotoxicity against human A549 cells assessed as inhibition of cell proliferation at 0.125 to 2 uM by MTT assay; assay type: functional, cell-based; details: dose 0.125-2 µM, time 24-72 hrs, TDE = time-dependent effect
A549 [8] = test: Cytotoxicity against human A549 cells assessed as inhibition of cell proliferation measured after 24 to 72 hrs by MTT assay; assay type: functional, cell-based; details: dose 0.125-2 µM, time 24-72 hrs, DDE = dose-dependent effect
A549 [9] = test: Induction of apoptosis in human A549 cells assessed as viable cells at 0.5 uM incubated for 48 hrs by Annexin V-FITC/propidium iodide staining based flow cytometry (reference value: 95.7%); assay type: functional; details: read-out: Activity
A549 [10] = test: Potency index, ratio of celastrol IC50 to test compound IC50 for cytotoxicity against human A549 cells by MTT assay; assay type: functional

With `CCCC/C=C1\SC(=O)N(CC(=O)N2CCN(C(=O)[C@]3(C)CC[C@]4(C)CC[C@]5(C)C6=CC=C7C(=CC(=O)C(O)=C7C)[C@]6(C)CC[C@@]5(C)[C@@H]4C3)CC2)C1=O` as the compound, how does the IC50 at 96 h [1] read?
The IC50 at 96 h was 3.44 µM.

What about the selectivity ratio [2] of the same compound?
Its selectivity ratio is 10.8.

What about the IC50 (A549 [3]) of the same compound?
Its IC50 is 0.32 µM.

With `CC1=C(O)C(=O)C=C2C1=CC=C1[C@@]2(C)CC[C@@]2(C)[C@@H]3C[C@](C)(C(=O)N4CCN(C(=O)CN5C(=O)S/C(=C\C6CCCC6)C5=O)CC4)CC[C@]3(C)CC[C@]12C` as the compound, how does the IC50 at 96 h [1] read?
The IC50 at 96 h was 3.21 µM.

And the selectivity ratio [2]?
Its selectivity ratio is 18.9.

What about the IC50 (A549 [3]) of the same compound?
Its IC50 is 0.17 µM.

Which IC50 at 96 h [1] does the source give for `CC1=C(O)C(=O)C=C2C1=CC=C1[C@@]2(C)CC[C@@]2(C)[C@@H]3C[C@](C)(C(=O)N4CCN(C(=O)CN5C(=O)S/C(=C\c6cccc(C)c6)C5=O)CC4)CC[C@]3(C)CC[C@]12C` here?
Its IC50 at 96 h is 3.19 µM.

What about the selectivity ratio [2] of the same compound?
The selectivity ratio was 6.01.

What about the IC50 (A549 [3]) of the same compound?
Its IC50 is 0.53 µM.

Which results are given for `CC1=C(O)C(=O)C=C2C1=CC=C1[C@@]2(C)CC[C@@]2(C)[C@@H]3C[C@](C)(C(=O)N4CCN(C(=O)CN5C(=O)S/C(=C\c6ccc(N(C)C)cc6)C5=O)CC4)CC[C@]3(C)CC[C@]12C`?
IC50 at 96 h [1]: 4.77 µM; selectivity ratio [2]: 5.07; IC50 (A549 [3]): 0.94 µM

With `CC1=C(O)C(=O)C=C2C1=CC=C1[C@@]2(C)CC[C@@]2(C)[C@@H]3C[C@](C)(C(=O)N4CCN(C(=O)CN5C(=O)S/C(=C\C6CCCCC6)C5=O)CC4)CC[C@]3(C)CC[C@]12C` as the compound, how does the IC50 at 96 h [1] read?
The IC50 at 96 h was 3.61 µM.

And the selectivity ratio [2]?
The selectivity ratio was 6.56.

And the IC50 (A549 [3])?
The IC50 was 0.55 µM.

Which results are given for `CC1=C(O)C(=O)C=C2C1=CC=C1[C@@]2(C)CC[C@@]2(C)[C@@H]3C[C@](C)(C(=O)N4CCN(C(=O)CN5C(=O)S/C(=C\c6ccc(Br)cc6)C5=O)CC4)CC[C@]3(C)CC[C@]12C`?
IC50 at 96 h [1]: 3.71 µM; selectivity ratio [2]: 7.27; IC50 (A549 [3]): 0.51 µM

What does the source list for `CC1=C(O)C(=O)C=C2C1=CC=C1[C@@]2(C)CC[C@@]2(C)[C@@H]3C[C@](C)(C(=O)N4CCN(C(=O)CN5C(=O)S/C(=C\c6ccc7c(c6)OCO7)C5=O)CC4)CC[C@]3(C)CC[C@]12C`?
IC50 at 96 h [1]: 4 µM; selectivity ratio [2]: 9.43; IC50 (A549 [3]): 0.35 µM

Which IC50 at 96 h [1] does the source give for `COc1ccc(/C=C2\SC(=O)N(CC(=O)N3CCN(C(=O)[C@]4(C)CC[C@]5(C)CC[C@]6(C)C7=CC=C8C(=CC(=O)C(O)=C8C)[C@]7(C)CC[C@@]6(C)[C@@H]5C4)CC3)C2=O)cc1` here?
The IC50 at 96 h was 2.04 µM.

What about the selectivity ratio [2] of the same compound?
The selectivity ratio was 6.38.

And the IC50 (A549 [3])?
The IC50 was 0.32 µM.

Which results are given for `CC1=C(O)C(=O)C=C2C1=CC=C1[C@@]2(C)CC[C@@]2(C)[C@@H]3C[C@](C)(C(=O)N4CCN(C(=O)CN5C(=O)S/C(=C\c6ccco6)C5=O)CC4)CC[C@]3(C)CC[C@]12C`?
IC50 at 96 h [1]: 1.05 µM; selectivity ratio [2]: 6.18; IC50 (A549 [3]): 0.17 µM

What does the source list for `CC1=C(O)C(=O)C=C2C1=CC=C1[C@@]2(C)CC[C@@]2(C)[C@@H]3C[C@](C)(C(=O)N4CCN(C(=O)CN5C(=O)S/C(=C\c6ccc(Cl)cc6)C5=O)CC4)CC[C@]3(C)CC[C@]12C`?
IC50 at 96 h [1]: 3.08 µM; selectivity ratio [2]: 7.33; IC50 (A549 [3]): 0.42 µM

Which IC50 at 96 h [1] does the source give for `CC1=C(O)C(=O)C=C2C1=CC=C1[C@@]2(C)CC[C@@]2(C)[C@@H]3C[C@](C)(C(=O)N4CCN(C(=O)CN5C(=O)S/C(=C\c6cccc(Cl)c6)C5=O)CC4)CC[C@]3(C)CC[C@]12C` here?
Its IC50 at 96 h is 3.16 µM.

And the selectivity ratio [2]?
The selectivity ratio was 6.58.

What about the IC50 (A549 [3]) of the same compound?
Its IC50 is 0.48 µM.

For `CC1=C(O)C(=O)C=C2C1=CC=C1[C@@]2(C)CC[C@@]2(C)[C@@H]3C[C@](C)(C(=O)N4CCN(C(=O)CN5C(=O)S/C(=C\c6cccs6)C5=O)CC4)CC[C@]3(C)CC[C@]12C`, which IC50 at 96 h [1] is on record?
The IC50 at 96 h was 1.27 µM.

What about the selectivity ratio [2] of the same compound?
The selectivity ratio was 3.53.

And the IC50 (A549 [3])?
The IC50 was 0.36 µM.

With `COc1cccc(/C=C2\SC(=O)N(CC(=O)N3CCN(C(=O)[C@]4(C)CC[C@]5(C)CC[C@]6(C)C7=CC=C8C(=CC(=O)C(O)=C8C)[C@]7(C)CC[C@@]6(C)[C@@H]5C4)CC3)C2=O)c1` as the compound, how does the IC50 at 96 h [1] read?
The IC50 at 96 h was 2.38 µM.

What about the selectivity ratio [2] of the same compound?
The selectivity ratio was 6.61.

What about the IC50 (A549 [3]) of the same compound?
The IC50 was 0.36 µM.

With `CC1=C(O)C(=O)C=C2C1=CC=C1[C@@]2(C)CC[C@@]2(C)[C@@H]3C[C@](C)(C(=O)O)CC[C@]3(C)CC[C@]12C` [CELASTROL] as the compound, how does the Activity (A549 [4]) read?
The Activity was 4.6%.

And the Activity (A549 [5])?
Its Activity is 6.97%.

What about the Activity (A549 [6]) of the same compound?
The Activity was 1.12%.

And the IC50 at 96 h [1]?
The IC50 at 96 h was 4.4 µM.

And the selectivity ratio [2]?
The selectivity ratio was 4.

And the Activity (A549 [7])?
Its Activity is “Tde”.

What about the Activity (A549 [8]) of the same compound?
Its Activity is “Dde”.

What about the viability at 0.5 µM (A549 [9]) of the same compound?
Its viability at 0.5 µM is 87.3%.

What about the IC50 (A549 [3]) of the same compound?
Its IC50 is 1.1 µM.

Which results are given for `CC1=C(O)C(=O)C=C2C1=CC=C1[C@@]2(C)CC[C@@]2(C)[C@@H]3C[C@](C)(C(=O)N4CCN(C(=O)CN5C(=O)CSC5=O)CC4)CC[C@]3(C)CC[C@]12C`?
IC50 at 96 h [1]: 5.7 µM; selectivity ratio [2]: 3.68; IC50 (A549 [3]): 1.55 µM

Which IC50 at 96 h [1] does the source give for `CC1=C(O)C(=O)C=C2C1=CC=C1[C@@]2(C)CC[C@@]2(C)[C@@H]3C[C@](C)(C(=O)N4CCN(C(=O)CN5C(=O)S/C(=C\c6ccc(F)cc6)C5=O)CC4)CC[C@]3(C)CC[C@]12C` here?
The IC50 at 96 h was 2.75 µM.

What about the selectivity ratio [2] of the same compound?
The selectivity ratio was 7.43.

And the IC50 (A549 [3])?
Its IC50 is 0.37 µM.

For `CC1=C(O)C(=O)C=C2C1=CC=C1[C@@]2(C)CC[C@@]2(C)[C@@H]3C[C@](C)(C(=O)N4CCN(C(=O)CN5C(=O)S/C(=C\c6ccccc6)C5=O)CC4)CC[C@]3(C)CC[C@]12C`, which IC50 at 96 h [1] is on record?
The IC50 at 96 h was 2.51 µM.

And the selectivity ratio [2]?
Its selectivity ratio is 6.28.

What about the IC50 (A549 [3]) of the same compound?
Its IC50 is 0.4 µM.

For `CC1=C(O)C(=O)C=C2C1=CC=C1[C@@]2(C)CC[C@@]2(C)[C@@H]3C[C@](C)(C(=O)N4CCN(C(=O)CN5C(=O)S/C(=C\c6cccc(Br)c6)C5=O)CC4)CC[C@]3(C)CC[C@]12C`, which IC50 at 96 h [1] is on record?
Its IC50 at 96 h is 4.02 µM.

And the selectivity ratio [2]?
Its selectivity ratio is 3.79.

What about the IC50 (A549 [3]) of the same compound?
Its IC50 is 1.06 µM.

Which results are given for `CC1=C(O)C(=O)C=C2C1=CC=C1[C@@]2(C)CC[C@@]2(C)[C@@H]3C[C@](C)(C(=O)N4CCN(C(=O)CN5C(=O)S/C(=C\c6ccc(C)cc6)C5=O)CC4)CC[C@]3(C)CC[C@]12C`?
IC50 at 96 h [1]: 2.5 µM; selectivity ratio [2]: 4.91; IC50 (A549 [3]): 0.51 µM

Which IC50 at 96 h [1] does the source give for `CC1=C(O)C(=O)C=C2C1=CC=C1[C@@]2(C)CC[C@@]2(C)[C@@H]3C[C@](C)(C(=O)N4CCN(C(=O)CN5C(=O)S/C(=C\C(C)C)C5=O)CC4)CC[C@]3(C)CC[C@]12C` here?
Its IC50 at 96 h is 2.93 µM.

And the selectivity ratio [2]?
Its selectivity ratio is 32.6.

What about the “Ratio IC50” value (A549 [10]) of the same compound?
Its value is 12.2.

And the IC50 (A549 [3])?
Its IC50 is 0.09 µM.

For `CC1=C(O)C(=O)C=C2C1=CC=C1[C@@]2(C)CC[C@@]2(C)[C@@H]3C[C@](C)(C(=O)N4CCN(C(=O)CN5C(=O)S/C(=C\c6cccc(F)c6)C5=O)CC4)CC[C@]3(C)CC[C@]12C`, which IC50 at 96 h [1] is on record?
Its IC50 at 96 h is 3.18 µM.

And the selectivity ratio [2]?
Its selectivity ratio is 7.95.

What about the IC50 (A549 [3]) of the same compound?
Its IC50 is 0.4 µM.
